From publication PMC9997068, “Impact of Gastric pH Variations on the Release of Amorphous Solid Dispersion Formulations Containing a Weakly Basic Drug and Enteric Polymers” (Molecular Pharmaceutics, 2023)

Assay: Drug crystallization in media of different pH (PXRD)
Type: physicochemical
Experimental: PXRD was used to confirm the amorphous state of freshly prepared DLM ASDs and to detect drug crystallization in solution. […] Crystallization of the DLM salt was evaluated at predetermined time points. Drug crystallization in ASDs upon acidic incubation was conducted at the same drug concentration as in the dissolution testing: 20 mg of ASD powder was added to 50 mL of acidic solutions at pH 1.6, 3.0, or 5.0 and kept stirring at 300 rpm, 37 °C for 1 h.
Undissolved particles were collected by vacuum filtration and analyzed using a Rigaku Smartlab diffractometer (Rigaku Americas, The Woodlands, TX) equipped with a Cu–Kα radiation source and a D/tex ultradetector. Diffractograms were acquired with a scanning speed of 4°/min (4–40° 2θ) and 0.02° step size. The voltage and current were 40 kV and 44 mA, respectively.

Question: For `C[C@]1(COc2ccc(N3CCC(Oc4ccc(OC(F)(F)F)cc4)CC3)cc2)Cn2cc([N+](=O)[O-])nc2O1.O=S(=O)(O)CCS(=O)(=O)O` [DLM edisylate], which pHmax (crystallization to the free base observed at all pHs investigated) is on record?
Answer: Its pHmax is < 1.6.

Question: What about the “immersion time at which evidence of crystalline free base was seen” value (neat amorphous salt in suspension, 37 °C) of the same compound?
Answer: The value was 5 min.

Question: What about the “crystallization of neat amorphous salt” value (pH 1.6 and 3.0) of the same compound?
Answer: The value was “rapid”.

Question: What about the “rate of crystallization of neat amorphous salt” value (pH 5.0 and 6.5) of the same compound?
Answer: The value was “much reduced”.
